From ChEMBL document CHEMBL1909046, “DrugMatrix in vitro pharmacology data”
pIC50, pKi: −log10 of the molar value.

Molecular target: Receptor tyrosine-protein kinase erbB-2 (Homo sapiens, UniProt P04626);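 note: inhibition of HER2 kinase enzyme activity, measured with Poly(Glu:Tyr) as the phosphorylation substrate; in other assays of this panel Not Active means under 50% inhibition at 10 µM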
Assay: biochemical
Format: cell-based, Insect cells
Conditions: insect cells

Chain of Receptor tyrosine-protein kinase erbB-2 (P04626 whole entry): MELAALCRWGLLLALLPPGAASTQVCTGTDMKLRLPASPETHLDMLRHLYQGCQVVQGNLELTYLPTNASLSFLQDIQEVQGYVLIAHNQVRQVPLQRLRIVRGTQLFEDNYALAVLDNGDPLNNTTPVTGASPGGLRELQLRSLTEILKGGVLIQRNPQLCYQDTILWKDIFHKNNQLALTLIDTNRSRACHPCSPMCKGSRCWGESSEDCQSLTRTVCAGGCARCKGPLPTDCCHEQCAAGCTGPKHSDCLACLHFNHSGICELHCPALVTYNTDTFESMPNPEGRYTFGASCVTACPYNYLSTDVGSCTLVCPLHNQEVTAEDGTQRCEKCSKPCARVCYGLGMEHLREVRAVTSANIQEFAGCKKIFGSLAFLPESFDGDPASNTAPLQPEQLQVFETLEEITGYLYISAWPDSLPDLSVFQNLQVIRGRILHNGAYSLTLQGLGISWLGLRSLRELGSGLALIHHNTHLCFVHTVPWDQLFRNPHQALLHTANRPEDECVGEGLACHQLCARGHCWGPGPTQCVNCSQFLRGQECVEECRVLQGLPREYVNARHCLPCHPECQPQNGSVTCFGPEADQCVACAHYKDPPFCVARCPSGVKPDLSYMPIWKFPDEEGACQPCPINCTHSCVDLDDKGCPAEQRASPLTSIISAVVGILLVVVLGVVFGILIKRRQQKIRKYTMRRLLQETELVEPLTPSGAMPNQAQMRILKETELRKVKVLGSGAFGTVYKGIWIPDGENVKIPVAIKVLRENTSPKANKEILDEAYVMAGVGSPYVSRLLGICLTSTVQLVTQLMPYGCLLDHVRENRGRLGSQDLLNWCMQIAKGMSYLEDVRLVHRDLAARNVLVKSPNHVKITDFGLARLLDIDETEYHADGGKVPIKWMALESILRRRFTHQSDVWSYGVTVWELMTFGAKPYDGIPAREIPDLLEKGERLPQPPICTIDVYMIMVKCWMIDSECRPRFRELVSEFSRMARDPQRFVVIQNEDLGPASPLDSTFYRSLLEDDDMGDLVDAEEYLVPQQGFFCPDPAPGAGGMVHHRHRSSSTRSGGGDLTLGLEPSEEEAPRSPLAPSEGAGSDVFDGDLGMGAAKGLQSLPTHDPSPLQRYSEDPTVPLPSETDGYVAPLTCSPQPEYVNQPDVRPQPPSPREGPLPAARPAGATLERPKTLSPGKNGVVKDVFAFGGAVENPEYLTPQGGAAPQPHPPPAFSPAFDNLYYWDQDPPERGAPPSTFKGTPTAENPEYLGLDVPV

Structure (SMILES) | IC50
CC1=C(CC(=O)O)c2cc(F)ccc2/C1=C\c1ccc([S+](C)[O-])cc1 (stereo not drawn) | Not Active
CC/C(=C(/CC)c1ccc(O)cc1)c1ccc(O)cc1 [DIETHYLSTILBESTROL] | Not Active
C=CCN1CC[C@]23c4c5ccc(O)c4O[C@H]2C(=O)CC[C@@]3(O)[C@H]1C5 [NALOXONE] | Not Active
CC(C)NCC(O)COc1cccc2ccccc12 (stereo not drawn) [PROPRANOLOL] | Not Active
COCCCOc1ccnc(C[S+]([O-])c2nc3ccccc3[nH]2)c1C (stereo not drawn) [RABEPRAZOLE] | Not Active
O=C(c1ccc(OCCN2CCCCC2)cc1)c1c(-c2ccc(O)cc2)sc2cc(O)ccc12 [RALOXIFENE] | Not Active
CC(C)CC(N(C)C)C1(c2ccc(Cl)cc2)CCC1 (stereo not drawn) [SIBUTRAMINE] | Not Active
Cc1cc(C)nc(NS(=O)(=O)c2ccc(N)cc2)n1 [SULFAMETHAZINE] | Not Active
O=C1CCC(N2C(=O)c3ccccc3C2=O)C(=O)N1 (stereo not drawn) [THALIDOMIDE] | Not Active

Molecular target: T1, Substance-K receptor (Homo sapiens, UniProt P21452); note: in other assays of this panel Not Active means under 50% inhibition at 10 µM
T1 sequence (P21452 whole entry): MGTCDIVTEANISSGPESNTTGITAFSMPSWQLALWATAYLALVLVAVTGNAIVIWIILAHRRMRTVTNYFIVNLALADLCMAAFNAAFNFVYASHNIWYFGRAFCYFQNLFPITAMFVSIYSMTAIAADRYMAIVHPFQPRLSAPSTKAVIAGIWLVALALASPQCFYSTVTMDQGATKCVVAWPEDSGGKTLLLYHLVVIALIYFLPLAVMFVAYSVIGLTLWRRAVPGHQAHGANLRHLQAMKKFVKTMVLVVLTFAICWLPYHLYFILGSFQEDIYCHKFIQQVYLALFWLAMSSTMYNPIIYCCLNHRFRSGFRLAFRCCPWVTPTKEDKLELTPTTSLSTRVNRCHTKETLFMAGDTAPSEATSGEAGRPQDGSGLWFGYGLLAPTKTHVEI
Assay: not given
Format: cell membranes, CHO, Membrane
Conditions: cho

Structure (SMILES) | IC50
CC1=C(CC(=O)O)c2cc(F)ccc2/C1=C\c1ccc([S+](C)[O-])cc1 (stereo not drawn) | Not Active
C=CCN1CC[C@]23c4c5ccc(O)c4O[C@H]2C(=O)CC[C@@]3(O)[C@H]1C5 [NALOXONE] | Not Active
CC(C)NCC(O)COc1cccc2ccccc12 (stereo not drawn) [PROPRANOLOL] | Not Active
COCCCOc1ccnc(C[S+]([O-])c2nc3ccccc3[nH]2)c1C (stereo not drawn) [RABEPRAZOLE] | Not Active
CC(C)CC(N(C)C)C1(c2ccc(Cl)cc2)CCC1 (stereo not drawn) [SIBUTRAMINE] | Not Active
Cc1cc(C)nc(NS(=O)(=O)c2ccc(N)cc2)n1 [SULFAMETHAZINE] | Not Active
O=C1CCC(N2C(=O)c3ccccc3C2=O)C(=O)N1 (stereo not drawn) [THALIDOMIDE] | Not Active

Same assay, conditions: read-out: IC50

Structure (SMILES) | pIC50
CC/C(=C(/CC)c1ccc(O)cc1)c1ccc(O)cc1 [DIETHYLSTILBESTROL] | 5.02
O=C(c1ccc(OCCN2CCCCC2)cc1)c1c(-c2ccc(O)cc2)sc2cc(O)ccc12 [RALOXIFENE] | 5.40

Same assay, conditions: read-out: Ki

Structure (SMILES) | pKi
CC/C(=C(/CC)c1ccc(O)cc1)c1ccc(O)cc1 [DIETHYLSTILBESTROL] | 5.50
O=C(c1ccc(OCCN2CCCCC2)cc1)c1c(-c2ccc(O)cc2)sc2cc(O)ccc12 [RALOXIFENE] | 5.88

Tested on: not listed separately
Assay: DRUGMATRIX: Phorbol Ester radioligand binding (ligand: [3H] PDBu)
Format: cell membranes, Mus musculus, ICR, Brain, Membrane
Conditions: Not Active = under 50% inhibition at 10 µM

Structure (SMILES) | IC50 | Ki
CC1=C(CC(=O)O)c2cc(F)ccc2/C1=C\c1ccc([S+](C)[O-])cc1 (stereo not drawn) | Not Active | Not Active
COCCCOc1ccnc(C[S+]([O-])c2nc3ccccc3[nH]2)c1C (stereo not drawn) [RABEPRAZOLE] | Not Active | Not Active
O=C(c1ccc(OCCN2CCCCC2)cc1)c1c(-c2ccc(O)cc2)sc2cc(O)ccc12 [RALOXIFENE] | Not Active | Not Active
CC(C)CC(N(C)C)C1(c2ccc(Cl)cc2)CCC1 (stereo not drawn) [SIBUTRAMINE] | Not Active | Not Active
Cc1cc(C)nc(NS(=O)(=O)c2ccc(N)cc2)n1 [SULFAMETHAZINE] | Not Active | Not Active
O=C1CCC(N2C(=O)c3ccccc3C2=O)C(=O)N1 (stereo not drawn) [THALIDOMIDE] | Not Active | Not Active

Molecular target: Melanocortin receptor 3 (Homo sapiens, UniProt P41968); note: in other assays of this panel Not Active means under 50% inhibition at 10 µM
Sequence (P41968 whole entry): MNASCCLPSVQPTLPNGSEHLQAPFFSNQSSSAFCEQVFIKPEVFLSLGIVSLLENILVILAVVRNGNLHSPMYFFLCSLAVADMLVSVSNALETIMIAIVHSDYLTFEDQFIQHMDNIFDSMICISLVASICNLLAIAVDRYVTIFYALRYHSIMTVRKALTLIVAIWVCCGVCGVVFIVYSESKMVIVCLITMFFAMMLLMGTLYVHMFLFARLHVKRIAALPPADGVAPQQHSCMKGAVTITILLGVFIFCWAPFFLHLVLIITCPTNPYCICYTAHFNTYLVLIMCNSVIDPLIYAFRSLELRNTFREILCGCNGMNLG
Assay: not given
Format: cell membranes, Membrane
Conditions: hek293

Structure (SMILES) | IC50
CC1=C(CC(=O)O)c2cc(F)ccc2/C1=C\c1ccc([S+](C)[O-])cc1 (stereo not drawn) | Not Active
CC/C(=C(/CC)c1ccc(O)cc1)c1ccc(O)cc1 [DIETHYLSTILBESTROL] | Not Active
C=CCN1CC[C@]23c4c5ccc(O)c4O[C@H]2C(=O)CC[C@@]3(O)[C@H]1C5 [NALOXONE] | Not Active
CC(C)NCC(O)COc1cccc2ccccc12 (stereo not drawn) [PROPRANOLOL] | Not Active
COCCCOc1ccnc(C[S+]([O-])c2nc3ccccc3[nH]2)c1C (stereo not drawn) [RABEPRAZOLE] | Not Active
O=C(c1ccc(OCCN2CCCCC2)cc1)c1c(-c2ccc(O)cc2)sc2cc(O)ccc12 [RALOXIFENE] | Not Active
CC(C)CC(N(C)C)C1(c2ccc(Cl)cc2)CCC1 (stereo not drawn) [SIBUTRAMINE] | Not Active
Cc1cc(C)nc(NS(=O)(=O)c2ccc(N)cc2)n1 [SULFAMETHAZINE] | Not Active
O=C1CCC(N2C(=O)c3ccccc3C2=O)C(=O)N1 (stereo not drawn) [THALIDOMIDE] | Not Active

Molecular target: 5-hydroxytryptamine receptor 1B (Rattus norvegicus, UniProt P28564); note: in other assays of this panel Not Active means under 50% inhibition at 10 µM
Sequence (P28564 whole entry): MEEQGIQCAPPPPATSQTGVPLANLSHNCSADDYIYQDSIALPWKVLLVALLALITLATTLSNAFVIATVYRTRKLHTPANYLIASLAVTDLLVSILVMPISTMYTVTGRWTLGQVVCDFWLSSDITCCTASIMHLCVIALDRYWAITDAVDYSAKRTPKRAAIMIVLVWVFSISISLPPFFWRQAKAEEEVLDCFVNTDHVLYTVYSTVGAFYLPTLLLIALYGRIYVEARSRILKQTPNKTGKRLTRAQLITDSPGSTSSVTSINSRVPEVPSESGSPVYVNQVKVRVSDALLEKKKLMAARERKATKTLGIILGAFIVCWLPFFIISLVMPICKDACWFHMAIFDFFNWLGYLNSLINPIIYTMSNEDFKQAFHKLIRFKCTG
Assay: not given
Format: cell membranes, Wistar, Cerebral cortex, Membrane
Conditions: not given

Structure (SMILES) | IC50
CC1=C(CC(=O)O)c2cc(F)ccc2/C1=C\c1ccc([S+](C)[O-])cc1 (stereo not drawn) | Not Active
CC/C(=C(/CC)c1ccc(O)cc1)c1ccc(O)cc1 [DIETHYLSTILBESTROL] | Not Active
C=CCN1CC[C@]23c4c5ccc(O)c4O[C@H]2C(=O)CC[C@@]3(O)[C@H]1C5 [NALOXONE] | Not Active
CC(C)NCC(O)COc1cccc2ccccc12 (stereo not drawn) [PROPRANOLOL] | Not Active
COCCCOc1ccnc(C[S+]([O-])c2nc3ccccc3[nH]2)c1C (stereo not drawn) [RABEPRAZOLE] | Not Active
CC(C)CC(N(C)C)C1(c2ccc(Cl)cc2)CCC1 (stereo not drawn) [SIBUTRAMINE] | Not Active
Cc1cc(C)nc(NS(=O)(=O)c2ccc(N)cc2)n1 [SULFAMETHAZINE] | Not Active
O=C1CCC(N2C(=O)c3ccccc3C2=O)C(=O)N1 (stereo not drawn) [THALIDOMIDE] | Not Active

Same assay, conditions: read-out: IC50

Structure (SMILES) | pIC50
O=C(c1ccc(OCCN2CCCCC2)cc1)c1c(-c2ccc(O)cc2)sc2cc(O)ccc12 [RALOXIFENE] | 5.73

Same assay, conditions: read-out: Ki

Structure (SMILES) | pKi
O=C(c1ccc(OCCN2CCCCC2)cc1)c1c(-c2ccc(O)cc2)sc2cc(O)ccc12 [RALOXIFENE] | 6.07

Tested on: not listed separately
Assay: DRUGMATRIX: Calcium Channel Type L, Benzothiazepine radioligand binding (ligand: [3H] Diltiazem)
Format: cell membranes, Rattus norvegicus, Wistar, Brain, Membrane
Conditions: Not Active = under 50% inhibition at 10 µM

Structure (SMILES) | IC50 | Ki
CC1=C(CC(=O)O)c2cc(F)ccc2/C1=C\c1ccc([S+](C)[O-])cc1 (stereo not drawn) | Not Active | Not Active
COCCCOc1ccnc(C[S+]([O-])c2nc3ccccc3[nH]2)c1C (stereo not drawn) [RABEPRAZOLE] | Not Active | Not Active
Cc1cc(C)nc(NS(=O)(=O)c2ccc(N)cc2)n1 [SULFAMETHAZINE] | Not Active | Not Active
O=C1CCC(N2C(=O)c3ccccc3C2=O)C(=O)N1 (stereo not drawn) [THALIDOMIDE] | Not Active | Not Active

Same assay, conditions: Not Active = under 50% inhibition at 10 µM; read-out: IC50

Structure (SMILES) | pIC50
CC(C)CC(N(C)C)C1(c2ccc(Cl)cc2)CCC1 (stereo not drawn) [SIBUTRAMINE] | 6.09

Same assay, conditions: Not Active = under 50% inhibition at 10 µM; read-out: Ki

Structure (SMILES) | pKi
O=C(c1ccc(OCCN2CCCCC2)cc1)c1c(-c2ccc(O)cc2)sc2cc(O)ccc12 [RALOXIFENE] | 6.43
CC(C)CC(N(C)C)C1(c2ccc(Cl)cc2)CCC1 (stereo not drawn) [SIBUTRAMINE] | 6.14

Molecular target: T2, Muscarinic acetylcholine receptor M4 (Homo sapiens, UniProt P08173); note: in other assays of this panel Not Active means under 50% inhibition at 10 µM
T2 sequence (P08173 whole entry): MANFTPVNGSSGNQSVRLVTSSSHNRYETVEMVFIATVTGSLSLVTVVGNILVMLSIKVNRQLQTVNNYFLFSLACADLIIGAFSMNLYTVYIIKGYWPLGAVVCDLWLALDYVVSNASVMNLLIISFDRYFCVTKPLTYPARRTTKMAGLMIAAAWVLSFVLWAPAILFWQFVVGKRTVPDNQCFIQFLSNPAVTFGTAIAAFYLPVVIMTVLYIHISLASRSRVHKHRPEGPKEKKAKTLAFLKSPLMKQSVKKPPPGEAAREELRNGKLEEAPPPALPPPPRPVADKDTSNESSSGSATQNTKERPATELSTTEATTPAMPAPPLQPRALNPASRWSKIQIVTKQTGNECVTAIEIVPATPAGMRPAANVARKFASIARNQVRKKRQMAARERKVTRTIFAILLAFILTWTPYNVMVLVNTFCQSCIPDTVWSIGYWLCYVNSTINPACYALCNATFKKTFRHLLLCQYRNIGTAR
Assay: not given
Format: cell membranes, CHO-K1, Membrane
Conditions: cho-k1

Structure (SMILES) | IC50
CC1=C(CC(=O)O)c2cc(F)ccc2/C1=C\c1ccc([S+](C)[O-])cc1 (stereo not drawn) | Not Active
CC/C(=C(/CC)c1ccc(O)cc1)c1ccc(O)cc1 [DIETHYLSTILBESTROL] | Not Active
C=CCN1CC[C@]23c4c5ccc(O)c4O[C@H]2C(=O)CC[C@@]3(O)[C@H]1C5 [NALOXONE] | Not Active
CC(C)NCC(O)COc1cccc2ccccc12 (stereo not drawn) [PROPRANOLOL] | Not Active
COCCCOc1ccnc(C[S+]([O-])c2nc3ccccc3[nH]2)c1C (stereo not drawn) [RABEPRAZOLE] | Not Active
O=C(c1ccc(OCCN2CCCCC2)cc1)c1c(-c2ccc(O)cc2)sc2cc(O)ccc12 [RALOXIFENE] | Not Active
CC(C)CC(N(C)C)C1(c2ccc(Cl)cc2)CCC1 (stereo not drawn) [SIBUTRAMINE] | Not Active
Cc1cc(C)nc(NS(=O)(=O)c2ccc(N)cc2)n1 [SULFAMETHAZINE] | Not Active
O=C1CCC(N2C(=O)c3ccccc3C2=O)C(=O)N1 (stereo not drawn) [THALIDOMIDE] | Not Active

Tested on: not listed separately
Assay: DRUGMATRIX: Glutamate, Kainate radioligand binding (ligand: [3H] Kainic acid)
Format: cell membranes, Rattus norvegicus, Wistar, Brain, Membrane
Conditions: Not Active = under 50% inhibition at 10 µM

Structure (SMILES) | IC50 | Ki
CC1=C(CC(=O)O)c2cc(F)ccc2/C1=C\c1ccc([S+](C)[O-])cc1 (stereo not drawn) | Not Active | Not Active
COCCCOc1ccnc(C[S+]([O-])c2nc3ccccc3[nH]2)c1C (stereo not drawn) [RABEPRAZOLE] | Not Active | Not Active
O=C(c1ccc(OCCN2CCCCC2)cc1)c1c(-c2ccc(O)cc2)sc2cc(O)ccc12 [RALOXIFENE] | Not Active | Not Active
CC(C)CC(N(C)C)C1(c2ccc(Cl)cc2)CCC1 (stereo not drawn) [SIBUTRAMINE] | Not Active | Not Active
Cc1cc(C)nc(NS(=O)(=O)c2ccc(N)cc2)n1 [SULFAMETHAZINE] | Not Active | Not Active
O=C1CCC(N2C(=O)c3ccccc3C2=O)C(=O)N1 (stereo not drawn) [THALIDOMIDE] | Not Active | Not Active
